pIC50: −log10 of the molar value.

Mitogen-activated protein kinase kinase kinase kinase 1, sequence (Q92918 whole entry): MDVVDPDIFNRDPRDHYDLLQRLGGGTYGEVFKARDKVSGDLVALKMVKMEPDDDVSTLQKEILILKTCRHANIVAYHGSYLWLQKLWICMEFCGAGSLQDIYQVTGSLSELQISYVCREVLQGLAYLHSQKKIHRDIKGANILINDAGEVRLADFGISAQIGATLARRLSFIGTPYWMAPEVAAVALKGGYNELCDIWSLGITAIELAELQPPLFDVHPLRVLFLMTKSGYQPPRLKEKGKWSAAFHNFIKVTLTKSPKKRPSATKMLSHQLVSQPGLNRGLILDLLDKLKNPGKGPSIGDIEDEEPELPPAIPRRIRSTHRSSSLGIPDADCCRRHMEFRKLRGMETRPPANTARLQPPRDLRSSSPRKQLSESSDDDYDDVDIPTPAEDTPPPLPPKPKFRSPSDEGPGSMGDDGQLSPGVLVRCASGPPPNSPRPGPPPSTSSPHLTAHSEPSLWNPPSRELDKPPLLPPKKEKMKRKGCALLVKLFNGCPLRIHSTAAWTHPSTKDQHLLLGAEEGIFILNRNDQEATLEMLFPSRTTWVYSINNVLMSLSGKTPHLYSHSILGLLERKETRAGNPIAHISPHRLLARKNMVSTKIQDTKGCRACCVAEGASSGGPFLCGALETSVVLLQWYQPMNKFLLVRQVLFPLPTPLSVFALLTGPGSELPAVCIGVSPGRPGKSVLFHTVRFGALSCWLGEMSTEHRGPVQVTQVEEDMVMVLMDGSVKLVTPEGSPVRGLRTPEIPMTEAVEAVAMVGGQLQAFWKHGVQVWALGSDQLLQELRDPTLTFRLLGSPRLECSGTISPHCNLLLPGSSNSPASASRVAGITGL

This test has as its target Mitogen-activated protein kinase kinase kinase kinase 1 (Homo sapiens, UniProt Q92918). The test is described as follows: Inhibition of N-terminal GST-tagged full-length human HPK1 expressed in baculovirus infected Sf21 cells using MBP as substrate preincubated for 15 mins followed by substrate addition and measured after 120 mins in presence of ATP by ADP-glo assay.
With `CN1CCN(c2ccc(-c3cc(C(N)=O)c4ncnc(N[C@H]5CCCNC5)c4n3)cn2)CC1`, the pIC50 was more than 7.00.
In the case of `COc1ccccc1-c1cc(C(N)=O)c2ncnc(N[C@H]3CCCNC3)c2n1` it was more than 7.00; in that of `COCCOc1ccc(-c2cc(C(N)=O)c3ncnc(N[C@H]4CCCNC4)c3n2)c(C#N)c1`, more than 7.00.
Consider `CS(=O)(=O)Cc1ccc(-c2cc(C(N)=O)c3ncnc(N[C@H]4CCCNC4)c3n2)cc1`, for which the negative-log IC50 (pIC50) was more than 7.00.
In the case of `NC(=O)c1cc(-c2ccc(F)cc2)nc2c(N[C@H]3CCCNC3)ncnc12`, the pIC50 was more than 7.00.
As for `NC(=O)c1cc(-c2ccc(C3(O)CC3)cc2)nc2c(N[C@H]3CCCNC3)ncnc12`, the negative logarithm of the IC50 (pIC50) was more than 7.00.
